Test system: LG0567-F671-PDC KRAS tumor spheroid viability
Test: Anticancer human tumor LG0567-F671-PDC patient-derived lung adenocarcinoma cell line growth inhibition [KRAS2]
Conditions: spheroids with HUVEC and MSC; for viability, T/C: stronger effect = lower value
Source text: Multicellular complex tumor spheroid response to RAS pathway inhibitors in combination with a targeted agents in patient-derived cell lines with oncogenic KRAS variants from multiple cancer types
A high-throughput screen of multi-cell type tumor spheroids was designed to identify active combinations of targeted small molecules and KRAS pathway inhibitors. Complex spheroids include a stromal component modeled by human endothelial cells (HUVEC) and fibroblasts modeled by human mesenchymal stem cells (MSCs). The concentration ranges selected for each drug and investigational agent were based upon clinically achievable concentrations if the clinical Cmax of the agent was known.
Compounds. The drugs and investigational agents: BI-3406 (NSC825286), BAY-293 (NSC824723), batoprotafib (TNO155; NSC825523), sotorasib (AMG 510; NSC818433), MRTX1257 (NSC819558), elimusertib (BAY 1895344; NSC800525), molibresib (GSK525762; NSC774829), temuterkib (LY3214996; NSC803410), venetoclax (NSC766270), alisertib (NSC759677), olaparib (NSC753686), talazoparib (NSC767125), erdafitinib (NSC781556), ipatasertib (NSC767898), cabozantinib (NSC761068), nintedanib (NSC756659), abemaciclib (NSC768073), docetaxel (NSC628503), trametinib (NSC758246), and sapanisertib (NSC764658) were obtained from the National Cancer Institute (NCI) Developmental Therapeutics Program Chemical Repository. The FDA-approved anticancer drug set is available from the Developmental Therapeutics Program. […] The stock solutions were prepared in dimethyl sulfoxide (DMSO, Sigma-Aldrich, St. Louis, MO, cat. D2650) at 800-fold the tested concentration and stored at -70 degrees C prior to their use. All drugs and investigational agents were tested over a range starting from a high concentration at or near the clinical Cmax and decreasing in half-log increments. If the clinical Cmax for an agent had not been determined, the highest concentration tested was 10 microM.
Cell Culture. All cells were maintained in an incubator at 37 degrees C and 5% CO2 with 95% humidity. The PDC lines were cultured according to standard operating procedures established by the NCI PDMR (https://pdmr.cancer.gov/sops/default.htm). Briefly, all PDCs were thawed and cultured in Matrigel-coated flasks prepared with a working solution of 1X Ham's F-12 nutrient mix, without supplementation (Invitrogen, Waltham, MA, cat. 11765054), 100 U/mL penicillin-streptomycin (Invitrogen, cat. 15140122), and 2.5% Matrigel (Corning Inc., Corning, NY, cat. 354248) for the first three passages. All PDCs were cultured in complete DMEM/F-12 media containing advanced DMEM/F-12 (Invitrogen, cat. 12634028), 4.9% defined fetal bovine serum, heat inactivated (HyClone Laboratories Inc., Logan, UT, cat. SH30070.03HI), 389 ng/mL hydrocortisone (Sigma-Aldrich, cat. H4001), 9.7 ng/mL human EGF recombinant protein (Invitrogen, cat. PHG0313), 23.4 microg/mL adenine (Sigma-Aldrich, cat. A2786), 97.3 U/mL penicillin-streptomycin (Invitrogen, cat. 15140122), 1.9 mM L-glutamine (Invitrogen, cat. 25030081), and 9.7 microM Y-27632 dihydrochloride (Tocris Bioscience, Bristol, United Kingdom, cat. 1254). The PDCs were cultured in complete DMEM/F12 media without 9.7 microM Y-27632 dihydrochloride for at least two passages prior to the screen. The established cell line HOP-62 was cultured in RPMI 1640 medium, HEPES (Invitrogen, cat. 22400105) with 10% defined fetal bovine serum (HyClone Laboratories Inc., cat. SH30070.03) and 2 mM L-glutamine (Invitrogen, cat. 25030081). The pooled donor HUVEC were cultured in endothelial cell growth medium 2 (PromoCell, Heidelberg, Germany, cat. C-22011) and the hMSC were cultured in mesenchymal stem cell growth medium 2 (PromoCell, cat. C-28009). For all experiments, HUVEC and hMSC were used at passages </=5, while the malignant cell lines were used at passages </=15. […]
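Note: drug exposure lasted seven days after spheroids formed for three days.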
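Throughout, for viability, T/C: 100% = DMSO vehicle control viability.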

CNCc1ccccc1-c1csc(C(C)Nc2nc(C)nc3cc(OC)c(OC)cc23)c1 (stereo not drawn)
viability, T/C (compound 10 µM): 0.63% [middle of 16 runs] | IC50 (compound alone, run of 07/19/2021): 1.25 µM [middle of 5 runs] | IC50 (compound alone, run of 07/26/2021): 4.92 µM [middle of 6 runs]

CC(=O)OC12COC1CC(O)C1(C)C(=O)C(O)C3=C(C)C(OC(=O)C(O)C(NC(=O)OC(C)(C)C)c4ccccc4)CC(O)(C(OC(=O)c4ccccc4)C21)C3(C)C (stereo not drawn) + C=CC(=O)N1CCN(c2nc(=O)n(-c3c(C)ccnc3C(C)C)c3nc(-c4c(O)cccc4F)c(F)cc23)C(C)C1
IC50 (curve of first compound, second compound 0.1 µM): < 10 nM | IC50 (curve of first compound, second compound 0.316 µM): < 10 nM | IC50 (curve of first compound, second compound 1 µM): < 10 nM | IC50 (curve of first compound, second compound 3.16 µM): < 10 nM | IC50 (curve of first compound, second compound 10 µM): < 10 nM | viability, T/C (second compound 0.1 µM, first compound 0.01 µM): 13.4% | viability, T/C (second compound 0.1 µM, first compound 0.0316 µM): 14.2% | viability, T/C (second compound 0.1 µM, first compound 0.1 µM): 14.2% | viability, T/C (second compound 0.1 µM, first compound 0.316 µM): 14.9% | viability, T/C (second compound 0.1 µM, first compound 1 µM): 18.2% | viability, T/C (second compound 0.1 µM, first compound 3.16 µM): 13.5% | viability, T/C (second compound 0.316 µM, first compound 0.01 µM): 13.7% | viability, T/C (second compound 0.316 µM, first compound 0.0316 µM): 12% | viability, T/C (second compound 0.316 µM, first compound 0.1 µM): 12.1% | viability, T/C (second compound 0.316 µM, first compound 0.316 µM): 12.3% | viability, T/C (second compound 0.316 µM, first compound 1 µM): 16.3% | viability, T/C (second compound 0.316 µM, first compound 3.16 µM): 12.7% | viability, T/C (second compound 1 µM, first compound 0.01 µM): 12.6% | viability, T/C (second compound 1 µM, first compound 0.0316 µM): 10.2% | viability, T/C (second compound 1 µM, first compound 0.1 µM): 10.1% | viability, T/C (second compound 1 µM, first compound 0.316 µM): 12% | viability, T/C (second compound 1 µM, first compound 1 µM): 12.8% | viability, T/C (second compound 1 µM, first compound 3.16 µM): 10.6% | viability, T/C (second compound 3.16 µM, first compound 0.01 µM): 10.7% | viability, T/C (second compound 3.16 µM, first compound 0.0316 µM): 9.62% | viability, T/C (second compound 3.16 µM, first compound 0.1 µM): 9.62% | viability, T/C (second compound 3.16 µM, first compound 0.316 µM): 9.52% | viability, T/C (second compound 3.16 µM, first compound 1 µM): 13.2% | viability, T/C (second compound 3.16 µM, first compound 3.16 µM): 10.1% | viability, T/C (second compound 10 µM, first compound 0.01 µM): 13.7% | viability, T/C (second compound 10 µM, first compound 0.0316 µM): 14% | viability, T/C (second compound 10 µM, first compound 0.1 µM): 15.6% | viability, T/C (second compound 10 µM, first compound 0.316 µM): 14.4% | viability, T/C (second compound 10 µM, first compound 1 µM): 14.5% | viability, T/C (second compound 10 µM, first compound 3.16 µM): 12.1%
